According to patent publication US7585875B2, “Substituted pyrazolo[1,5-a]pyridine compounds and their methods of use” (Avigen, Inc., priority 2006, dated 2009):
Where a name gives a salt, the structure may show the parent alone.

tested on: mechanical allodynia after chronic constriction injury (CCI) to the sciatic nerve; assay: Mechanical allodynia by response to von Frey fibers, rat chronic constriction injury (CCI) model; format: in vivo, male Sprague-Dawley rats; conditions: 10 mg/kg IP, 2 hr post dosing
Source text: Chronic Constriction Injury: Heat and cold allodynia responses as well as mechanical allodynia sensations can be evaluated as described below in rats having a chronic constriction injury (CCI). A unilateral mononeuropathy is produced in rats using the chronic constriction injury model described in Bennett et al., Pain (1988) 33:87-107. CCI is produced in anesthetized rats as follows. The lateral aspect of each rat's hind limb is shaved and scrubbed with Nolvasan. Using aseptic techniques, an incision is made on the lateral aspect of the hind limb at the mid-thigh level. The biceps femoris is bluntly dissected to expose the sciatic nerve. On the right hind limb of each rat, four loosely tied ligatures (for example, Chromic gut 4.0; Ethicon, Johnson and Johnson, Somerville, N.J.) are made around the sciatic nerve approximately 1-2 mm apart. On the left side of each rat, an identical dissection is performed except that the sciatic nerve is not ligated (sham). The muscle is closed with a continuous suture pattern with, e.g., 4-0 Vicryl (Johnson and Johnson, Somerville, N.J.) and the overlying skin is closed with wound clips. The rats are ear-tagged for identification purposes and returned to animal housing.
To induce allodynia, male Sprague-Dawley rats underwent chronic constriction injury (CCI) to the sciatic nerve as described by Bennett and Xie, Pain 1988; 33(1):87-107. The plantar surface of the hind paws was stimulated with von Frey filaments (Stoelting) to induce a withdrawal response by blinded personnel. The bending force of fiber required to induce a 50% withdrawal response was calculated following CCI surgery (pre-dosing baseline). N=5-6 allodynic rats received a single intraperitoneal administration of test compound or vehicle. Two hours post-dosing, 50% paw withdrawal threshold was determined again by blinded testers using von Frey filaments. The change in 50% withdrawal threshold relative to pre-dosing baseline is reported in Table 2 for various substituted pyrazolo[1,5-a]pyridine compounds of the invention.

Row | SMILES | Mechanical Allodynia ΔWT (change from pre-dosing 50% withdrawal threshold) | Observation noted beside the allodynia value
1 | CC(C)c1nn2ccccc2c1C(N)C(C)C (stereo not drawn) [Compound 1051, 1-(2-isopropylpyrazolo[1,5-a]pyridin-3-yl)-2-methylpropan-1-amine hydrochloride] | 0.29 grams | 
2 | CC(N)C(=O)c1c(-c2ccc(F)cc2)nn2ccccc12 (stereo not drawn) [Compound 1052, 2-amino-1-(2-(4-fluorophenyl)pyrazolo[1,5-a]pyridin-3-yl)propan-1-one hydrochloride] | 10 mg/kg: 0.39 grams | 
3 | COc1nn2ccccc2c1C(=O)C(C)C [Compound 1055, 1-(2-methoxypyrazolo[1,5-a]pyridin-3-yl)-2-methylpropan-1-one] | 10 mg/kg: 2.80 grams | 
4 | COc1nn2ccccc2c1C(=O)C(C)N (stereo not drawn) [Compound 1057, 2-amino-1-(2-methoxypyrazolo[1,5-a]pyridin-3-yl)propan-1-one] | 0.06 grams | 
5 | CCC(N)C(=O)c1c(C(C)C)nn2ccccc12 (stereo not drawn) [Compound 1060, 2-amino-1-(2-isopropylpyrazolo[1,5-a]pyridin-3-yl)butan-1-one] | 10 mg/kg: 1.87 grams | 
6 | CC(C)CC(N)C(=O)c1c(C(C)C)nn2ccccc12 (stereo not drawn) [Compound 1061, 2-amino-1-(2-isopropylpyrazolo[1,5-a]pyridin-3-yl)-4-methylpentan-1-one] | 0 grams | 
7 | CC(=O)OC(C)C(=O)c1c(C(C)C)nn2ccccc12 (stereo not drawn) [Compound 1067, 1-(2-isopropylpyrazolo[1,5-a]pyridin-3-yl)-1-oxopropan-2-yl acetate] | 0.46 grams | 
8 | CC(O)C(=O)c1c(C(C)C)nn2ccccc12 (stereo not drawn) [Compound 1068, 2-hydroxy-1-(2-isopropylpyrazolo[1,5-a]pyridin-3-yl)propan-1-one] | 0.7 grams | 
9 | COC(C)C(=O)c1c(C(C)C)nn2ccccc12 (stereo not drawn) [Compound 1069, 1-(2-isopropylpyrazolo[1,5-a]pyridin-3-yl)-2-methoxypropan-1-one] | 0.13 grams | 
10 | CCC(=O)c1c(-c2ccc(F)cc2)nn2ccccc12 [Compound 1070, 1-(2-(4-fluorophenyl)pyrazolo[1,5-a]pyridin-3-yl)propan-1-one] | 0 grams | 
11 | CC(C)C(=O)c1c(N(C)C)nn2ccccc12 [Compound 1072, 1-(2-(dimethylamino)pyrazolo[1,5-a]pyridin-3-yl)-2-methylpropan-1-one] | 1.48 grams | lethargy
12 | CC(C)c1nn2ccccc2c1C=O [Compound 1073, 2-isopropylpyrazolo[1,5-a]pyridine-3-carbaldehyde] | 0 grams | 
13 | CC(C)c1nn2ccccc2c1/C=N/NC(N)=O [Compound 1074, (E)-2-((2-isopropylpyrazolo[1,5-a]pyridin-3-yl)methylene)hydrazinecarboxamide] | 3.64 grams | lethargy
14 | CC(N)C(=O)c1c(N(C)C)nn2ccccc12 (stereo not drawn) [Compound 1075, 2-amino-1-(2-(dimethylamino)pyrazolo[1,5-a]pyridin-3-yl)propan-1-one] | 0.67 grams | 
15 | CCCCC(N)C(=O)c1c(C(C)C)nn2ccccc12 (stereo not drawn) [Compound 1077, 2-amino-1-(2-isopropylpyrazolo[1,5-a]pyridin-3-yl)hexan-1-one] | 0.41 grams | 
16 | CC(=O)c1c(C(C)C)nn2ccccc12 [Compound 1080, 1-(2-isopropylpyrazolo[1,5-a]pyridin-3-yl)ethanone] | 1.14 grams | 
17 | CC(=O)SC(C)C(=O)c1c(C(C)C)nn2ccccc12 (stereo not drawn) [Compound 1081, S-1-(2-isopropylpyrazolo[1,5-a]pyridin-3-yl)-1-oxopropan-2-yl ethanethioate] | 0.07 grams | 

Row | SMILES | Mechanical Allodynia ΔWT (change from pre-dosing 50% withdrawal threshold) | Observation noted beside the allodynia value
18 | COCC(N)C(=O)c1c(C(C)C)nn2ccccc12 (stereo not drawn) [Compound 1082, 2-amino-1-(2-isopropylpyrazolo[1,5-a]pyridin-3-yl)-3-methoxypropan-1-one] | 0.5 grams | 
19 | C/C(=N/O)C(=O)c1c(C(C)C)nn2ccccc12 [Compound 1083, (Z)-2-(hydroxyimino)-1-(2-isopropylpyrazolo[1,5-a]pyridin-3-yl)propan-1-one] | 0 grams | 
20 | CC(C)c1nn2ccccc2c1-c1cccc(N)c1 [Compound 1100, 3-(2-isopropyl-pyrazolo[1,5-a]pyridin-3-yl)-phenylamine] | 0 grams | 
21 | CC(C)c1nn2ccccc2c1-c1ccc(N)cc1 [Compound 1101, 4-(2-Isopropyl-pyrazolo[1,5-a]pyridin-3-yl)-phenylamine] | 0.02 grams | 
22 | CC(C)c1nn2ccccc2c1-c1ccc(N2CCOCC2)cc1 [Compound 1102, 2-Isopropyl-3-(4-morpholin-4-yl-phenyl)-pyrazolo[1,5-a]pyridine] | 0 grams | 
23 | CC(C)c1nn2ccccc2c1-c1cn[nH]c1 [Compound 1104, 2-isopropyl-3-(1H-pyrazol-4-yl)-pyrazolo[1,5-a]pyridine] | 0.86 grams | 
24 | CC(C)c1nn2ccccc2c1-c1cccnc1 [Compound 1111, 2-Isopropyl-3-pyridin-3-yl-pyrazolo[1,5-a]pyridine] | 0 grams | 
25 | CC(C)c1nn2ccccc2c1-c1cnn(C)c1 [Compound 1112, 2-Isopropyl-3-(1-methyl-1H-pyrazol-4-yl)-pyrazolo[1,5-a]pyridine] | 0 grams | 
26 | CC(C)c1nn2ccccc2c1-c1ccnc(NCCCO)n1 [Compound 1134, 3-[4-(2-Isopropyl-pyrazolo[1,5-a]pyridin-3-yl)-pyrimidin-2-ylamino]-propan-1-ol] | 0 grams | 
27 | CC(C)c1nn2ccccc2c1-c1ccnc(NCCCN2CCN(C)CC2)n1 [Compound 1135, [4-(2-Isopropyl-pyrazolo[1,5-a]pyridin-3-yl)-pyrimidin-2-yl]-[3-(4-methyl-piperazin-1-yl)-propyl]-amine] | 0 grams | 
28 | CC(C)c1nn2ccccc2c1-c1ccnc(N)n1 [Compound 1139, 4-(2-Isopropyl-pyrazolo[1,5-a]pyridin-3-yl)-pyrimidin-2-ylamine] | 0.21 grams | 
29 | CC(C)c1nn2ccccc2c1-c1cc[nH]n1 [Compound 1141, 2-isopropyl-3-(1H-pyrazol-3-yl)-pyrazolo[1,5-a]pyridine] | 1.04 grams | 
30 | CC(NCc1ccccc1)C(=O)c1c(C(C)C)nn2ccccc12 (stereo not drawn) [compound 1071, 2-(benzylamino)-1-(2-isopropylpyrazolo[1,5-a]pyridin-3-yl)propan-1-one] | 0.57 grams | 
31 | CC(C)c1nn2ccccc2c1-c1c[nH]c(=S)[nH]1 [compound 1085, 4-(2-isopropylpyrazolo[1,5-a]pyridin-3-yl)-1H-imidazole-2(3H)-thione] | 1.93 grams | 
32 | CC(C)c1nn2ccccc2c1-c1ccncc1 [compound 1103, 2-Isopropyl-3-pyridin-4-yl-pyrazolo[1,5-a]pyridine] | 1.54 grams | 
33 | CC(C)Nc1nccc(-c2c(C(C)C)nn3ccccc23)n1 [compound 1137, isopropyl-[4-(2-isopropylpyrazolo[1,5-a]pyridin-3-yl)-pyrimidin-2-yl]-amine] | 3.26 grams | 

same assay, conditions: 20 mg/kg IP, 2 hr post dosing

Row | SMILES | Mechanical Allodynia ΔWT (change from pre-dosing 50% withdrawal threshold)
34 | CC(N)C(=O)c1c(-c2ccc(F)cc2)nn2ccccc12 (stereo not drawn) [Compound 1052, 2-amino-1-(2-(4-fluorophenyl)pyrazolo[1,5-a]pyridin-3-yl)propan-1-one hydrochloride] | 20 mg/kg: 0.31 grams
35 | COc1nn2ccccc2c1C(=O)C(C)C [Compound 1055, 1-(2-methoxypyrazolo[1,5-a]pyridin-3-yl)-2-methylpropan-1-one] | 20 mg/kg: 0 grams
36 | CCC(N)C(=O)c1c(C(C)C)nn2ccccc12 (stereo not drawn) [Compound 1060, 2-amino-1-(2-isopropylpyrazolo[1,5-a]pyridin-3-yl)butan-1-one] | 20 mg/kg: 0.74 grams

target: phosphodiesterase (PDE) enzyme derived from bovine brain; assay: Inhibition of PDE (PDELight kit, cAMP substrate); format: biochemical; conditions: PDE from brain extract, cAMP as substrate
Experimental: In a 96-well plate, phosphodiesterase (PDE) enzyme (0.5-1 mU/well) derived from bovine brain (Sigma) was combined with 5 uM cAMP substrate (Sigma). Test compounds (0-200 uM) or vehicle (0.5% DMSO) were added to the enzyme/substrate and incubated for 1 hour. Using a PDELight® kit (Cambrex), the amount of AMP produced in the reaction from the hydrolysis of cAMP was quantified using PDELight AMP Detection Reagent which converts the AMP directly to ATP. The assay uses luciferase, which catalyses the formation of light from the newly formed ATP and luciferin. The luminescence was read on a Victor Light 1420 luminometer. IC50 calculations were plotted using a nonlinear regression curve fit.

Row | SMILES | IC50 [µM]
37 | CC(C)C(=NOC(N)=O)c1c(-c2ccc(F)cc2)nn2ccccc12 [Compound 1020, 1-(2-(4-fluorophenyl)pyrazolo[1,5-a]pyridin-3-yl)-2-methylpropan-1-one O-carbamoyl oxime] | > 200
